Values of other authors as cited in patent US12364989B2, “High throughput method and system for analyzing the effects of agents on planaria” (priority 2019, dated 2025).

Tests used:
[1] = system: planarians; settings: regenerating compared with intact animals
[2] = system: planaria
[3] = system: planaria; settings: Hagstrom et al., Toxicological Sciences 2015

Structure (SMILES): C[S+](C)[O-] [DMSO, Dimethyl sulfoxide]
- sensitivity of regenerating planarians [1]: increased sensitivity

Structure (SMILES): CN(C)C=O [N,N-dimethylformamide]
- effect on auricle regeneration ([2]; morphological endpoint, Zhang et al., Toxicological and Industrial Health 2013): effect

Structure (SMILES): CCO [ethanol]
- sensitivity of regenerating planarians [1]: increased sensitivity

Structure (SMILES): CC1(C)C(C=C(Cl)Cl)C1C(=O)OCc1cccc(Oc2ccccc2)c1 (centres unmarked) [permethrin]
- eye reappearance ([2]; Hagstrom et al., Toxicological Sciences 2015): did delay
- blastema growth rate [3]: did not affect
